System: human T helper cells
Experiment: IL-22 expression in human T helper cells activated with anti-CD3/anti-CD28 microparticles and recombinant Delta-like 4
Type: cell-based
Conditions: increasing concentrations of Delta-like 4 on microparticles; no antigen-presenting cells; restimulated after 5 days; FIG. 6
Experimental: Naive, i.e. antigen-inexperienced, human T helper cells are activated in the absence of antigen-presenting cells with microparticles loaded with stimulating anti-CD3 and anti-CD28 antibodies and increasing concentrations of recombinantly produced Delta-like 4. After 5 days the cells are restimulated and the expression of IL-22 is analyzed.

Substance: Delta-like 4: recombinantly produced Notch ligand Delta-like 4, loaded on microparticles
- expression of IL-22: concentration-dependent expression of IL-22
